Measured values taken from paper PMC10382589, “In vitro and in vivo antiplasmodial evaluation of sugar-modified nucleoside analogues” (Scientific Reports, 2023).
“Also recorded” adds a separate entry of the source. Where two headings read alike, the source gives them in different places.

Assays:
human RBCs = assay: Hemolytic activity on human RBCs; type: cell-based; details: 0.5-20 µM, 10% (v/v) RBC suspension, 1 h, absorbance at 415 nm
Protocol: Effect of compounds on human RBCs was checked with the help of spectrophotometry by measuring the lysis of human red blood cells (hRBCs). Compounds were tested at 0.5, 1, 5, 10 and 20 μM concentrations with 10% (v/v) RBCs suspension for 1 h and observed the percentage of RBCs lysis by compounds 7, 16, 17, 18 and 1.
Human RBCs were from Rotary Blood Bank, Tughlakabad Institutional Area, New Delhi, India. Effect of compounds on RBCs was checked by hemolytic assay. In brief, RBCs suspension with 10% (v/v) washed with 1 × Phosphate-buffered saline (PBS) (pH 7.4) and again resuspended in 1 × PBS. RBCs suspension was incubated with compounds 7, 16, 17, 18 and 1 at different concentrations (0.5, 1, 5, 10 and 20 μM) for 1 h at 37 °C. Samples were centrifuged and supernatant was taken for absorbance at 415 nm. Triton X-100 with 1% (v/v) was used as a positive control. Experiment was done in triplicate.

[1] = test system: embryonic kidney cell lines, HEK-293; details: HEK-293 cells, MTT, 48 h incubation
Protocol: Cytotoxicity against human embryonic kidney cell line (ATCC) was determined using MTT dye[35]. In order to measuring the cytotoxicity of the compounds we used MTT dye to detect live/dead cells. […] cells were stored at 37 °C, 5% CO2 in […] sterile culture flasks (Corning) in complete Dulbecco's Modified Eagle Medium (DMEM) culture medium (a) supplemented with 5% Fetal Bovine Serum (FBS), gentamicin ([…]), with changing the medium thrice a week. The monolayers were washed, counted, diluted in complete medium, distributed in 96-well microtiter plates (5000 cells/well), followed by incubation for another 24 h at 37 °C. The test compounds and DMSO were added in triplicate. After a 48 h incubation at 37 °C, the supernatant was removed and 100 µL of MTT solution in complete DMEM was added to each well, followed by 2 h incubation at 37 °C. The culture plates were read in a spectrophotometer (Tecan infinite M200, nanoquant, UK) with a 490 nm filter, and the cytotoxic concentrations were determined based on a dose response curve.

[2] = test system: Pf3D7 chloroquine-sensitive strain; assay: SYBR green I based fluorescence growth inhibition assay, Pf3D7; type: cell-based, Plasmodium falciparum; details: for IC50 / inhibition at 1 µM: Plasmodium falciparum; for IC50: read-out: IC50 (µM) against Pf3D7; for growth inhibition against Pf3D7 (in words): screen at 1 µM and 10 µM, vs untreated control (Fig. S1); for inhibition at 1 µM: asynchronous culture, one intraerythrocytic cycle (Fig. S1), read-out: inhibition against Pf3D7 at 1 µM
Protocol: Growth of one intraerythrocytic cycle of Pf was monitored after treated with compounds whereas untreated parasites were considered as control.
(§1) The percent growth inhibition of the parasites was evaluated by SYBR Green assay.
(§2) Pf3D7 and PfRKL-9 were cultured by following procedure reported by Trager and Jensen[33]. […] In order to examine the morphological changes in the parasite, a blood film must be prepared. A thin blood film was air-dried, fixed with methanol, and allowed to dry before staining. […] Light microscopy analysis was carried out to evaluate the inhibitory effect of compounds at different concentrations against Pf3D7 and PfRKL-9.
SYBR green I based fluorescence assay was performed to measure the growth inhibition effect of the 26 compounds and further dose dependent assay against Pf3D7, and PfRKL-9 (Indian field strain, source- NIMR, New Delhi, India) was carried out at different concentrations. […] Parasitized erythrocytes were treated with different concentrations of compounds ranging from 1 µM to 10 µM, whereas DMSO worked as a control. Triplicate wells of parasitized erythrocytes treated with compounds were seeded in 96 well microtiter plate following incubation at 37 °C for one cycle of parasite growth. […] Growth inhibition (%) was calculated as follows: % Inhibition = [1 − % Parasitemia (Treatment)/% Parasitemia (Control)] *100. Data were expressed as mean ± SD.

[3] = test system: Mitochondrial membrane potential of the malaria parasites; assay: JC-1 mitochondrial membrane potential assay; type: cell-based, Plasmodium falciparum; details: parasites treated with IC50 concentration for 3 h; untreated control 7.04 ± 1.30
Text: Mitochondrial membrane potential is a marker of mitochondria’s functional status. Modification in mitochondrial membrane potential leading to mitochondrial dysfunction triggers cell death[25],[26]. Mitochondrial dysfunction was detected by using membrane permeant JC-1 dye. JC-1 is a cationic probe, due to electronegative environment inside the functionally active mitochondria with high Δψm, it aggregates in energised mitochondria and gives red color fluorescence at 590 nm, but in case of low Δψm (depolarized state), JC-1 remain in monomeric form and gives green color fluorescence at […]. Decreased ratio of red/green fluorescence intensity of compound treated sample as compared to untreated control indicates depolarized mitochondrial membrane[27],[28]. The damage to the parasite's mitochondria after treatment with compounds 7, 16, 17, 18 and 1 was measured according to the method reported previously. Because of lipophilic nature of the JC-1, it is cell permeable and emits a green signal (525 nm) in the cytoplasm, but the high transmembrane potential of functional mitochondria causes it to aggregate and emit a red signal (590 nm). […]. Mitochondrial membrane potential of the malaria parasites was determined by using MitoProbe™ JC-1 assay as described previously. In brief, trophozoite stage parasites (10–12% parasitemia) were treated with IC50 concentration of compounds 7, 16, 17, 18 and 1 for 3 h at 37 °C in the CO2 incubator. Samples were washed with 1 × PBS by centrifugation at 500 × g for 2 min at RT. Freshly prepared JC-1 dye was added to each sample with working concentration of 5 µg/mL. Incubation was done for 30 min at 37 °C in a CO2 incubator. Cells were washed twice with 1 × PBS. Spectrofluorometer was used to observe mitochondrial membrane potential by measuring fluoroscence intensities from the parasite lysate at wavelength of excitation (520 nm) and emission (590 nm) respectively. In vivo cell imaging was done with the help of Olympus fluoview 3000 confocal microscopy. Live cell imaging was observed under a 100X objective (oil immersion) and band pass filter at 355–460 nm. Experiments were repeated thrice and only representative figures are shown (Fig. 6).

[4] = test system: chloroquine resistant strain PfRKL-9; assay: SYBR green I based fluorescence growth inhibition assay, PfRKL-9; type: cell-based; details: Plasmodium falciparum, synchronized late trophozoite parasites, triplicate, mean ± SD, read-out: IC50 (µM) against PfRKL-9
Protocol: as §1, §2
SYBR green I based fluorescence assay was performed to measure the growth inhibition effect of the 26 compounds and further dose dependent assay against Pf3D7, and PfRKL-9 (Indian field strain, source- NIMR, New Delhi, India) was carried out at different concentrations. In brief, Pf3D7 and PfRKL-9 parasitized erythrocytes (trophozoite stage with 1% parasitemia) were diluted with noninfected erythrocytes at a constant 2% hematocrit in culture medium. Parasitized erythrocytes were treated with different concentrations of compounds ranging from 1 µM to 10 µM, whereas DMSO worked as a control. Triplicate wells of parasitized erythrocytes treated with compounds were seeded in 96 well microtiter plate following incubation at 37 °C for one cycle of parasite growth. […] Growth inhibition (%) was calculated as follows: % Inhibition = [1 − % Parasitemia (Treatment)/% Parasitemia (Control)] *100. Data were expressed as mean ± SD.

[5] = chloroquine-sensitive strain, synchronized late trophozoite parasites, SYBR Green, triplicate, mean ± SD

| SMILES | growth inhibition against Pf3D7 (in words) [2] | inhibition at 1 µM [2] [%] | other results |
| --- | --- | --- | --- |
| Cc1cn([C@@H]2O[C@H](CN3C[C@@H](COC(c4ccccc4)(c4ccccc4)c4ccccc4)O[C@@H](n4ccc(=O)[nH]c4=O)C3)[C@H]3OC(C)(C)O[C@H]32)c(=O)[nH]c1=O [Compound 1] | significant growth inhibition in a dose dependent manner; also recorded: good/excellent inhibitory effect | – | lysis of human RBCs (in words) (human RBCs): no significant lysis; Cell survival (%) at 500 µM [1]: 45%; IC50 [2, 5]: 1.31 ± 1.1 µM; JC-1 red/green ratio [3]: 5.69 ± 0.70; IC50 [4]: 1.83 ± 0.7 µM |
| COc1ccc(C(OC[C@@H]2CN(C[C@H]3O[C@@H](n4cc(C)c(=O)[nH]c4=O)C[C@@H]3O)C[C@H](n3cc(C)c(=O)[nH]c3=O)O2)(c2ccccc2)c2ccc(OC)cc2)cc1 [Compound 3] | remarkable actvity; also recorded: good/excellent inhibitory effect | – | lysis of human RBCs (in words) (human RBCs): showed cytotoxicity towards human RBCs; also recorded: showed toxicity; IC50 [2, 5]: 1.19 ± 1.1 µM; IC50 [4]: 4.5 ± 2.5 µM |
| Cc1cn([C@@H]2O[C@H](CN3C[C@@H](CN4C[C@@H](COC(c5ccccc5)(c5ccccc5)c5ccccc5)O[C@@H](n5cc(C)c(=O)[nH]c5=O)C4)O[C@@H](n4ccc(=O)[nH]c4=O)C3)[C@H]3OC(C)(C)O[C@H]32)c(=O)[nH]c1=O [Compound 4] | good/excellent inhibitory effect | – | – |
| Nc1ncnc2c1ncn2[C@@H]1O[C@H](CN2C[C@@H](CO)O[C@@H](n3cnc4c(=O)[nH]cnc43)C2)[C@@H](O)[C@H]1O [Compound 5] | remarkable actvity | – | lysis of human RBCs (in words) (human RBCs): showed cytotoxicity towards human RBCs; also recorded: showed toxicity; IC50 [2, 5]: 1.34 ± 2.1 µM; IC50 [4]: 6.23 ± 1.5 µM |
| CC1(C)O[C@@H]2[C@H](O1)[C@H](CS[C@@H]1O[C@H](CO)[C@@H](O)[C@H](O)[C@H]1O)O[C@H]2n1cnc2c(NC(c3ccccc3)(c3ccccc3)c3ccccc3)ncnc21 [Compound 8, 1-[2’,3’-O-Isopropylidene-5’-S-(β-D-glucopyranosyl)-5’-thio-α-L-lyxofuranosyl]-N-trityl-adenine] | did not significantly affect the antimalarial activity | – | – |
| CC(=O)OC[C@H]1O[C@@H](SC[C@@H]2O[C@@H](n3cnc4c(N)ncnc43)[C@H](O)[C@@H]2O)[C@H](OC(C)=O)[C@@H](OC(C)=O)[C@@H]1OC(C)=O [Compound 9, 1-[5’-S-(2,3,4,6-Tetra-O-acetyl-β-D-glucopyranosyl)-5’-thio-α-L-lyxofuranosyl]-adenine] | significant decrease in growth inhibitiory effect | – | – |
| CCCSC[C@@H]1[C@@H](O[Si](C)(C)C(C)(C)C)[C@H](n2ccc(=O)[nH]c2=O)O[C@@H]1CO[Si](C)(C)C(C)(C)C [Compound 10] | – | 5 to 25 | – |
| CC(C)(C)[Si](C)(C)OC[C@H]1O[C@@H](n2ccc(=O)[nH]c2=O)[C@H](O[Si](C)(C)C(C)(C)C)[C@H]1CSCc1ccc2ccccc2c1 [Compound 11, 1-[3’-Deoxy-3’-C-(2-naphtyl)methylsulfanylmethyl-2’,5’-di-O-(tert-butyldimethylsilyl)-β-D-xylofuranosyl]-uracil] | – | 5 to 25 | – |
| COC(=O)[C@H](CSC[C@@H]1[C@@H](O[Si](C)(C)C(C)(C)C)[C@H](n2ccc(=O)[nH]c2=O)O[C@@H]1CO[Si](C)(C)C(C)(C)C)NC(=O)OCC1c2ccccc2-c2ccccc21 [Compound 12, 1-[3’-Deoxy-3’-C-(N-Fmoc-cysteinemethyl ester)thiylmethyl-2’,5’-di-O-(tert-butyldimethylsilyl)-β-D-xylofuranosyl]-uracil] | good/excellent inhibitory effect | – | – |
| CC(=O)OC[C@H]1O[C@@H](SC[C@@H]2[C@@H](O[Si](C)(C)C(C)(C)C)[C@H](n3ccc(=O)[nH]c3=O)O[C@@H]2CO[Si](C)(C)C(C)(C)C)[C@@H](OC(C)=O)[C@@H](OC(C)=O)[C@@H]1OC(C)=O [Compound 15, 1-[3’-Deoxy-3’-C-(-2,3,4,6-tetra-O-acetyl-β-D-mannopyranosyl-sulfanylmethyl)-2’,5’-di-O-(tert-butyldimethylsilyl)-β-D-xylofuranosyl]-uracil] | more moderate growth inhibitory effect | ~50 | – |
| CCCCCCCCCCSC[C@@H]1[C@@H](O[Si](C)(C)C(C)(C)C)[C@H](n2cc(C)c(=O)[nH]c2=O)O[C@@H]1CO[Si](C)(C)C(C)(C)C [Compound 19] | – | 5 to 25 | – |
| CCCCSC[C@H]1[C@@H]2O[Si](C(C)C)(C(C)C)O[Si](C(C)C)(C(C)C)OC[C@H]2O[C@H]1n1ccc(=O)[nH]c1=O [Compound 20, 2’-Deoxy-2’-C-butylsulfanylmethyl-3’,5’-O-(1,1,3,3-tetraisopropyldisiloxane-1,3-diyl)-β-D-arabinofuranosyl-uracil] | good/excellent inhibitory effect | – | – |
| CCN(CC)CCCC(C)Nc1ccnc2cc(Cl)ccc12 (stereo not shown) [chloroquine, reference compound] | – | – | IC50 [2]: 0.025 µM |
